Converted amounts (≈) assume the structure as drawn. “And” between values parts separate entries of the source, which are not always exact repeats. Equal entries are not always repeated.
The molecules below were run on Trypanosoma brucei (assay: DNDI: Inhibition of Human African Trypanosomiasis, SBRI 427, in vitro). Conditions: not given.
Format: functional, organism-based

Structure (SMILES)	IC50
CCOc1ccccc1-c1nc(CNC2CCCCCCCCCCC2)co1	1.37 µg/mL (≈ 3.56 µM)
CCOc1ccc(-c2nc(CNC(C)C3CCCCC3)co2)cc1 (stereo unspecified)	1.96 µg/mL (≈ 5.97 µM)
CC(C)(C)c1ccc(-c2nc(CNCC3CC3)co2)cc1	1.69 µg/mL (≈ 5.94 µM)
CN(Cc1coc(-c2cccc3ccccc23)n1)C1CCCCC1	1.3 µg/mL (≈ 4.06 µM)
CCN(CCN(C)C)Cc1coc(-c2ccc(C(C)(C)C)cc2)n1	1.87 µg/mL (≈ 5.68 µM)
CCC1CCCCN1Cc1coc(-c2cccc3ccccc23)n1 (stereo unspecified)	1.83 µg/mL (≈ 5.71 µM)
CC(NCc1coc(-c2cccc3ccccc23)n1)C1CCCCC1 (stereo unspecified)	1.7 µg/mL (≈ 5.08 µM)
CC(C)(C)CNCc1coc(-c2ccc(C(C)(C)C)cc2)n1	2.86 µg/mL (≈ 9.52 µM)
CCOc1cccc(-c2nc(CNCCC3CCCN3C)co2)c1 (stereo unspecified)	1.78 µg/mL and 4.05 µg/mL
C[C@@H]1C(NCc2coc(-c3ccccc3Br)n2)C[C@H]2C[C@@H]1C2(C)C (stereo partly specified)	1.95 µg/mL (≈ 5.01 µM)

Same assay, conditions: Trypanosoma brucei, SBRI 427; read-out: IC50

Structure (SMILES)	IC50 [µg/mL]
CCOc1ccc(-c2nc(Cn3nc(N)cc3C)co2)cc1	2.11 (≈ 7.07 µM)
CSc1ccc(Oc2ccc(/C(=N/O)NCc3ccccc3F)cn2)cc1	1.6 (≈ 4.17 µM)
O/N=C(\NC1CCC1)c1ccnc(Oc2cc(Cl)ccc2Cl)c1	0.6 (≈ 1.7 µM)
O/N=C(\Nc1ccccc1)c1cccnc1OCc1ccccc1	1.26 (≈ 3.95 µM)
O/N=C(\NC1CCCCC1)c1ccnc(Oc2ccc(F)c(F)c2)c1	> 5
CCOc1ccccc1-c1nc(CNC2CCCCCCCCCCC2)co1	1.51 (≈ 3.93 µM)
COc1ccc(Oc2ncccc2/C(=N/O)NC2CCc3ccccc32)cc1 (stereo unspecified)	1.51 (≈ 4.02 µM)
Cc1ccc(Oc2cc(/C(=N/O)N3CCCCCC3)ccn2)c(C)c1	> 5
CC1CCC(N/C(=N\O)c2ccc(Oc3ccc(Cl)cc3)nc2)CC1 (stereo unspecified)	1.42 (≈ 3.95 µM)
CC(C)COc1ncccc1/C(=N/O)NC1CCC(C)CC1 (stereo unspecified)	2.25 (≈ 7.37 µM)
O/N=C(/c1ccnc(Oc2cccc3c2CCCC3)c1)N1CCSCC1	> 5
COc1ccc(Oc2ncccc2/C(=N/O)NCc2ccccc2C)cc1	2.36 (≈ 6.49 µM)
CCC(CC)N/C(=N\O)c1ccc(C)nc1Oc1cccc(F)c1	1.56 (≈ 4.71 µM)
COc1ccc(-c2nc(CNC3CCN(Cc4ccccc4)CC3)co2)cc1	2.92 (≈ 7.74 µM)
CC(C)COc1ncccc1/C(=N/O)NC1CCCCC1	2.18 (≈ 7.48 µM)
CCOc1ccc(-c2nc(CNC(C)C3CCCCC3)co2)cc1 (stereo unspecified)	1.44 (≈ 4.38 µM)
COc1cccc(Oc2ccc(/C(=N/O)NC3CCCCC3)cn2)c1	1.23 (≈ 3.6 µM)
COc1ccc(Oc2ncccc2/C(=N/O)NCc2ccccc2OC)cc1	2.37 (≈ 6.25 µM)
Cc1ccc(/C(=N/O)N2CCCc3ccccc32)c(Oc2cccc(F)c2)n1	2.54 (≈ 6.73 µM)
O/N=C(/c1ccc(Oc2ccc(Cl)cc2)nc1)N1CCC2CCCCC2C1 (stereo unspecified)	1.24 (≈ 3.21 µM)
CC(C)(C)CN/C(=N\O)c1ccnc(Oc2ccc(F)c(Cl)c2)c1	2.73 (≈ 7.76 µM)
CCOc1ccccc1CN/C(=N\O)c1cccnc1Oc1ccc(OC)cc1	1.44 (≈ 3.66 µM)
O/N=C(\NC1CCCC1)c1ccnc(Oc2cccc(F)c2)c1	2.27 (≈ 7.2 µM)

Structure (SMILES)	IC50 [µg/mL]
Cc1cccc(Oc2nc(C)ccc2/C(=N/O)NCC(C)C)c1	1.67 (≈ 5.33 µM)
Cc1ccc(/C(=N/O)NCc2ccccc2F)c(Oc2cc(Cl)ccc2Cl)n1	> 5
CCOc1ccccc1CN/C(=N\O)c1ccc(C)nc1Oc1ccc(C)cc1C	2.99 (≈ 7.37 µM)
O/N=C(\NCc1c(F)cccc1F)c1cccnc1Oc1ccccc1	1.58 (≈ 4.45 µM)
CC(C)(C)c1ccc(-c2nc(CNCC3CC3)co2)cc1	1.22 (≈ 4.29 µM)
C[C@@H]1C(NCc2coc(-c3cccc4ccccc34)n2)C[C@H]2C[C@@H]1C2(C)C (stereo partly specified)	0.94 (≈ 2.61 µM)
COc1ccccc1CN/C(=N\O)c1ccc(C)nc1Oc1cc(Cl)ccc1Cl	3.98 (≈ 9.21 µM)
CC(C)c1cccc(Oc2ccc(/C(=N/O)NCc3ccncc3)cn2)c1	2.64 (≈ 7.28 µM)
Cc1ccc(/C(=N/O)NC2CC(C)CC(C)(C)C2)c(OCC(C)C)n1 (stereo unspecified)	1.77 (≈ 5.09 µM)
Cc1ccc(/C(=N/O)NC2CCCC2)c(Oc2cc(Cl)ccc2Cl)n1	0.4 (≈ 1.05 µM)
CC(C)COc1ncccc1/C(=N/O)NC1CCC1	1.41 (≈ 5.35 µM)
CC(C)c1cccc(Oc2ccc(/C(=N/O)N(C)Cc3cccnc3)cn2)c1	2.5 (≈ 6.64 µM)
CSc1ccc(Oc2ccc(/C(=N/O)NC3CCC(C)CC3)cn2)cc1 (stereo unspecified)	1.35 (≈ 3.63 µM)
CC(C)(C)CN/C(=N\O)c1ccnc(Oc2cccc(F)c2)c1	2.19 (≈ 6.9 µM)
O/N=C(\NCc1cccs1)c1ccc(Oc2cccc(F)c2)nc1	1.93 (≈ 5.62 µM)
Cc1ccc(CN/C(=N\O)c2cccnc2Oc2cc(Cl)ccc2Cl)o1	1.67 (≈ 4.26 µM)
CCC(CC)N/C(=N\O)c1ccc(Oc2cc(Cl)ccc2Cl)nc1	1.35 (≈ 3.67 µM)
C=CCc1ccc(Oc2cc(/C(=N/O)NCc3ccc(OC)cc3)ccn2)c(OC)c1	> 5
Cc1ccc([C@@H](C)NCc2coc(-c3cccc4ccccc34)n2)cc1	1.86 (≈ 5.43 µM)
CCC(CC)N/C(=N\O)c1ccc(C)nc1Oc1ccc(F)c(Cl)c1	> 5
CC1(C)[C@H]2CC[C@@H](CNCc3coc(-c4ccc(F)cc4)n3)[C@@H]1C2	> 5
CN(Cc1coc(-c2cccc3ccccc23)n1)C1CCCCC1	2.01 (≈ 6.27 µM)
Cc1ccc(Oc2ncccc2/C(=N/O)NCc2ccccc2)c2c1CCC2	1.28 (≈ 3.43 µM)

Structure (SMILES)	IC50 [µg/mL]
O/N=C(\NCC1CCCCC1)c1ccc(Oc2ccc(Cl)cc2)nc1	1.6 (≈ 4.45 µM)
CC(C)N/C(=N\O)c1cccnc1OCC(C)(C)C	0.9 (≈ 3.39 µM)
CCC(CC)N/C(=N\O)c1cccnc1OCc1ccccc1	0.51 (≈ 1.63 µM)
CCN(CCN(C)C)Cc1coc(-c2ccc(C(C)(C)C)cc2)n1	3.09 (≈ 9.38 µM)
COc1ccc(-c2nc(CNCCCN3CCCCC3C)co2)cc1 (stereo unspecified)	> 5
Cc1ccc(-c2nc(Cn3nc(N)cc3C)co2)cc1	> 5
Cc1cccc(Oc2nc(C)ccc2/C(=N/O)NCC(C)(C)C)c1	0.32 (≈ 0.977 µM)
COc1cccc(Oc2ccc(/C(=N/O)NCC3CCCCC3)cn2)c1	2.15 (≈ 6.05 µM)
Cc1ccc(Oc2cc(/C(=N/O)NCC(C)(C)C)ccn2)c(C)c1	0.36 (≈ 1.1 µM)
CC(C)c1cccc(Oc2cc(/C(=N/O)N3CCN(c4ccccc4)CC3)ccn2)c1	2.91 (≈ 6.99 µM)
Cc1ccc2cccc(Oc3cc(/C(=N/O)NC4CCC(C)CC4)ccn3)c2n1 (stereo unspecified)	4.86 (≈ 12.4 µM)
CCOc1ccccc1CN/C(=N\O)c1cccnc1Oc1ccc(Cl)cc1	2.13 (≈ 5.35 µM)
C=CCc1ccc(Oc2ccc(/C(=N/O)NCc3ccncc3)cn2)c(OC)c1	2.1 (≈ 5.38 µM)
Cc1ccc(-c2nc(CN(Cc3ccccn3)Cc3ccccn3)co2)cc1	> 5
Cc1ccccc1CN/C(=N\O)c1cccnc1Oc1cccc(C)c1C	3.57 (≈ 9.88 µM)
O/N=C(\NCC1CC1)c1cccnc1OCc1ccccc1	0.61 (≈ 2.05 µM)
O/N=C(\NCC1CCCCC1)c1ccc(Oc2cc(Cl)ccc2Cl)nc1	2.81 (≈ 7.13 µM)
CC1CCc2ccccc2N1/C(=N\O)c1cccnc1OCC(C)(C)C (stereo unspecified)	0.66 (≈ 1.87 µM)
Cc1cc(C)cc(CN/C(=N\O)c2cccnc2OCC(C)C)c1	1.94 (≈ 5.92 µM)
CCC(CC)N/C(=N\O)c1ccc(Oc2ccc(Cl)cc2)nc1	1.63 (≈ 4.88 µM)
CCC1CCCCN1Cc1coc(-c2cccc3ccccc23)n1 (stereo unspecified)	2.13 (≈ 6.65 µM)
Clc1ccc(-c2nc(CNCCCn3ccnc3)co2)c(Cl)c1	2.02 (≈ 5.75 µM)
COc1cc(C)ccc1Oc1nc(C)ccc1/C(=N/O)NCc1ccccc1	0.77 (≈ 2.04 µM)

Structure (SMILES)	IC50 [µg/mL]
Cc1ccc(/C(=N/O)NCC(C)C)c(Oc2cccc(F)c2)n1	1.37 (≈ 4.32 µM)
CC(NCc1coc(-c2cccc3ccccc23)n1)C1CCCCC1 (stereo unspecified)	1.34 (≈ 4.01 µM)
CN(/C(=N\O)c1ccnc(Oc2ccc(F)c(Cl)c2)c1)C1CCCCC1	> 5
Cc1ccc(/C(=N/O)N(C)c2ccccc2)c(Oc2cccc(F)c2)n1	1.34 (≈ 3.81 µM)
CCC(CC)N/C(=N\O)c1ccc(C)nc1Oc1cc(Cl)ccc1Cl	3.35 (≈ 8.76 µM)
CCN(CC)CCCC(C)NCc1coc(-c2ccccc2Cl)n1 (stereo unspecified)	> 5
O/N=C(\NC1CCCC1)c1ccnc(Oc2cc(Cl)ccc2Cl)c1	10.8 (≈ 29.6 µM)
c1ccc2c(-c3nc(CNCCCN4CCCC4)co3)cccc2c1	0.62 (≈ 1.85 µM)
Cc1ccc(/C(=N/O)NCC(C)(C)C)c(OCc2cccc(F)c2)n1	2.11 (≈ 6.11 µM)
O/N=C(\NC1CCCCC1)c1ccnc(Oc2ccc(F)c(Cl)c2)c1	3.79 (≈ 10.4 µM)
COc1ccc(Oc2ncccc2/C(=N/O)NCC2CCCCC2)cc1	1.96 (≈ 5.51 µM)
Cc1ccc(/C(=N/O)NCc2cc(F)cc(F)c2)c(Oc2cc(Cl)ccc2Cl)n1	2.52 (≈ 5.75 µM)
COc1cccc(Oc2ccc(/C(=N/O)NC3CCC(C)CC3)cn2)c1 (stereo unspecified)	1.97 (≈ 5.54 µM)
CC1CCCCN1CCCNCc1coc(-c2cccc3ccccc23)n1 (stereo unspecified)	2.07 (≈ 5.69 µM)
C[C@H]1C(NCc2coc(-c3cccc4ccccc34)n2)C[C@@H]2C[C@H]1C2(C)C (stereo partly specified)	0.9 (≈ 2.5 µM)
O/N=C(\NC1CCC1)c1cccnc1Oc1ccccc1OCc1ccccc1	1.39 (≈ 3.57 µM)
CCc1ccc(Oc2ncccc2/C(=N/O)NC(C)COC)cc1 (stereo unspecified)	2.17 (≈ 6.59 µM)
O/N=C(\NCC1CCCCC1)c1ccnc(Oc2cccc3c2CCCC3)c1	5 (≈ 13.2 µM)
NCCc1cn(Cc2coc(-c3ccc(Cl)cc3Cl)n2)cn1	4.34 (≈ 12.9 µM)
COc1ccc(Oc2nc(C)ccc2/C(=N/O)NC2CCCC2)cc1	1.33 (≈ 3.9 µM)
COc1cccc(-c2nc(CNC34C[C@H]5C[C@@H](C3)C[C@@H](C4)C5)co2)c1	> 5
Cc1ccc(/C(=N/O)NCC2CCCO2)c(Oc2cc(Cl)ccc2Cl)n1 (stereo unspecified)	> 5
CC(C)(C)CNCc1coc(-c2ccc(C(C)(C)C)cc2)n1	1.62 (≈ 5.39 µM)

Structure (SMILES)	IC50 [µg/mL]
CSCCN/C(=N\O)c1cccnc1Oc1c(F)cccc1F	4.81 (≈ 14.2 µM)
COc1cccc(-c2nc(Cn3ccnc3C=O)co2)c1	> 5
O/N=C(\NC1CCCCC1)c1ccc(Oc2cc(Cl)ccc2Cl)nc1	1.3 (≈ 3.42 µM)
O/N=C(\NC1CCc2ccccc21)c1cccnc1Oc1c(F)cccc1F (stereo unspecified)	1.7 (≈ 4.46 µM)
CC1CCC(C)N1/C(=N\O)c1cccnc1OCC(C)(C)C (stereo unspecified)	1.25 (≈ 4.09 µM)
COc1ccc(Oc2ncccc2/C(=N/O)NCc2cc(C)cc(C)c2)cc1	2.32 (≈ 6.15 µM)
CCOc1ccccc1CN/C(=N\O)c1cccnc1Oc1cc(Cl)ccc1Cl	0.66 (≈ 1.53 µM)
O/N=C(/c1cccnc1Oc1cccc(C(F)(F)F)c1)N1CCN(C2CCCC2)CC1	2.33 (≈ 5.36 µM)
Cc1ccc(/C(=N/O)NCC(C)(C)C)c(Oc2cccc(F)c2)n1	0.45 (≈ 1.36 µM)
COc1ccc(Oc2ncccc2/C(=N/O)NCc2ccccc2)cc1	3.01 (≈ 8.62 µM)
COc1ccc(-c2nc(CNC[C@@H]3CC[C@H]4C[C@@H]3C4(C)C)co2)cc1	1.31 (≈ 3.85 µM)
C[C@@H]1C(NCc2coc(-c3ccccc3Br)n2)C[C@H]2C[C@@H]1C2(C)C (stereo partly specified)	1.22 (≈ 3.13 µM)
Cc1cccc(Oc2nc(C)ccc2/C(=N/O)NC2CCCCC2)c1	1.24 (≈ 3.65 µM)
Cc1ccc(-c2nc(CNC34C[C@H]5C[C@@H](C3)C[C@@H](C4)C5)co2)cc1	3.86 (≈ 12 µM)
O/N=C(\NCc1cccs1)c1cccnc1Oc1ccc2oc3ccccc3c2c1	2.45 (≈ 5.9 µM)
CCN(CC)CCCNCc1coc(-c2cccc(C)c2)n1	3.36 (≈ 11.1 µM)
COCCN/C(=N\O)c1cccnc1Oc1ccc(C)c2c1CCC2	1.77 (≈ 5.18 µM)
O/N=C(\NC1CCCC1)c1ccc(Oc2ccc(Cl)cc2)nc1	1.32 (≈ 3.98 µM)
O/N=C(\NC1CCCC1)c1ccnc(Oc2ccc(F)c(F)c2)c1	2.94 (≈ 8.82 µM)

Source: ChEMBL document CHEMBL1857833, “Screening and optimization of specific chemical series against human African Trypanosomiasis (HAT)”
